Assay results taken from the supplement of paper PMC6045584.
± gives the standard deviation of the averaged measurements.

What was measured:
[1] = compound: COc1cc2ncnc(Nc3ccc(F)c(Cl)c3)c2cc1NC(=O)/C=C/CN1CCCCC1; test: surviving fraction relative to DMSO-only wells; higher = less growth inhibition; conditions: exposure time: 5 days
How it was run: (§1)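 For each tumour cell line, log-phase cells were put into 384-well plates at 250–500 cells per well, then after 24 hours exposed continuously for five days to inhibitors at 0.5, 1, 5, 10, 50, 100, 500 and 1000 nM. Viability was assessed by CellTiter-Glo luminescence, with surviving fraction expressed relative to the median of DMSO-only wells. Lines were screened three times and retained only if replicate Pearson r exceeded 0.7 and median Z' exceeded 0.3.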

[2] = compound: C[C@@H](Oc1cc(-c2cnn(C3CCNCC3)c2)cnc1N)c1c(Cl)ccc(F)c1Cl; test: as above; conditions: exposure time: 5 days
How it was run: as §1

Test System | surviving fraction ([1]; 0.5 nM) | surviving fraction ([1]; 1 nM) | surviving fraction ([1]; 5 nM) | surviving fraction ([1]; 10 nM) | surviving fraction ([1]; 50 nM) | surviving fraction ([1]; 100 nM) | surviving fraction ([1]; 500 nM) | surviving fraction ([1]; 1000 nM) | surviving fraction ([2]; 0.5 nM) | surviving fraction ([2]; 1 nM) | surviving fraction ([2]; 5 nM) | surviving fraction ([2]; 10 nM) | surviving fraction ([2]; 500 nM) | surviving fraction ([2]; 1000 nM) | surviving fraction ([2]; 50 nM) | surviving fraction ([2]; 100 nM)
22RV1 PROSTATE | 1 ± 0.17 | 1.04 ± 0.099 | 0.977 ± 0.059 | 1 ± 0.087 | 1.03 ± 0.05 | 0.97 ± 0.063 | 1.02 ± 0.061 | 0.9 ± 0.045 | 0.954 ± 0.079 | 1.01 ± 0.02 | 0.958 ± 0.022 | 0.944 ± 0.033 | 0.59 ± 0.078 | 0.406 ± 0.027 |  | 
93VU HEADNECK | 0.834 ± 0.065 | 0.8653 ± 0.005 | 0.651 ± 0.02 | 0.541 ± 0.12 | 0.465 ± 0.016 | 0.456 ± 0.034 | 0.353 ± 0.036 | 0.267 ± 0.025 | 0.809 ± 0.025 | 0.816 ± 0.02 | 0.835 ± 0.043 | 0.866 ± 0.068 | 0.77 ± 0.02 | 0.521 ± 0.068 | 1.08 ± 0.068 | 1.06 ± 0.083
143B BONE | 1.03 ± 0.027 | 1.006 ± 0.005 | 1.01 ± 0.067 | 1.01 ± 0.033 | 1.02 ± 0.018 | 1.01 ± 0.03 | 0.957 ± 0.016 | 0.831 ± 0.04 | 0.997 ± 0.012 |  |  | 0.997 ± 0.012 | 0.811 ± 0.039 | 0.643 ± 0.061 |  | 1.002 ± 0.0092
A549 LUNG | 1.03 ± 0.089 | 0.985 ± 0.053 | 0.986 ± 0.08 | 0.962 ± 0.034 | 1.04 ± 0.066 | 1.02 ± 0.024 | 1 ± 0.044 | 1.02 ± 0.042 |  | 0.942 ± 0.01 |  | 0.909 ± 0.0099 | 1.009 ± 0.0093 | 0.552 ± 0.031 | 1.01 ± 0.014 | 1.04 ± 0.064
ASKA SYNOVIAL | 1.11 ± 0.094 | 1.23 ± 0.051 | 1.15 ± 0.038 | 1.24 ± 0.14 | 1.3 ± 0.068 | 1.29 ± 0.04 | 0.959 ± 0.021 | 1.12 ± 0.019 | 0.873 ± 0.092 | 0.773 ± 0.061 | 0.78 ± 0.035 | 0.69 ± 0.044 | 0.246 ± 0.014 | 0.249 ± 0.014 | 0.527 ± 0.028 | 0.415 ± 0.021
BT20 BREAST | 1.08 ± 0.071 | 1 ± 0.12 | 0.895 ± 0.015 | 0.934 ± 0.13 | 1.05 ± 0.028 | 0.996 ± 0.13 | 1.13 ± 0.045 | 0.809 ± 0.16 | 0.82 ± 0.047 | 0.792 ± 0.032 | 0.808 ± 0.092 | 0.821 ± 0.071 | 0.786 ± 0.04 | 0.468 ± 0.078 | 1 ± 0.074 | 1 ± 0.052
BT549 BREAST | 0.991 ± 0.049 | 1.1 ± 0.15 | 1.02 ± 0.17 | 1.06 ± 0.13 | 1 ± 0.037 | 0.927 ± 0.14 | 0.727 ± 0.058 | 0.473 ± 0.08 | 0.76 ± 0.093 | 0.99 ± 0.11 |  | 0.905 ± 0.019 |  | 0.371 ± 0.042 | 1.1 ± 0.073 | 
C33A CERVIX | 0.793 ± 0.044 | 0.93 ± 0.15 | 0.899 ± 0.017 | 0.802 ± 0.085 | 0.517 ± 0.051 | 0.428 ± 0.022 | 0.358 ± 0.019 | 0.296 ± 0.02 | 1.01 ± 0.068 |  | 1.08 ± 0.13 | 1.14 ± 0.059 | 0.565 ± 0.028 | 0.515 ± 0.011 | 1.06 ± 0.044 | 
CADOES1 SOFT TISSUE | 0.985 ± 0.058 | 0.938 ± 0.14 | 1.03 ± 0.16 | 0.873 ± 0.046 | 0.884 ± 0.07 | 0.896 ± 0.047 | 0.891 ± 0.018 | 0.7 ± 0.031 |  | 0.89 ± 0.16 | 0.961 ± 0.088 | 0.936 ± 0.036 | 0.576 ± 0.054 | 0.291 ± 0.033 | 0.93 ± 0.042 | 0.941 ± 0.04
CAL51 BREAST | 0.985 ± 0.05 | 1.03 ± 0.076 | 1 ± 0.086 | 0.968 ± 0.031 | 1.03 ± 0.08 | 1.02 ± 0.1 | 0.9793 ± 0.0063 | 0.848 ± 0.027 | 0.958 ± 0.033 | 0.918 ± 0.099 | 1 ± 0.023 | 0.909 ± 0.049 | 0.215 ± 0.017 | 0.175 ± 0.0096 | 0.972 ± 0.046 | 0.949 ± 0.026
CAL72 BONE | 1.08 ± 0.014 | 1.06 ± 0.042 | 1.08 ± 0.062 | 1.03 ± 0.024 | 1.06 ± 0.055 | 1.07 ± 0.034 | 0.943 ± 0.019 | 0.818 ± 0.017 | 1 ± 0.02 | 1.04 ± 0.024 | 1.02 ± 0.029 |  | 0.903 ± 0.025 | 0.9047 ± 0.0064 | 1.09 ± 0.047 | 1.1 ± 0.013
CAL120 BREAST | 0.98 ± 0.016 | 0.952 ± 0.014 | 0.965 ± 0.021 | 0.973 ± 0.038 | 0.959 ± 0.022 | 0.961 ± 0.04 | 0.837 ± 0.025 | 0.543 ± 0.019 | 0.912 ± 0.011 |  | 0.908 ± 0.029 | 0.898 ± 0.02 | 0.676 ± 0.091 | 0.547 ± 0.013 |  | 0.935 ± 0.017
CASKI CERVIX | 0.801 ± 0.054 | 0.762 ± 0.015 | 0.468 ± 0.0036 | 0.336 ± 0.024 | 0.285 ± 0.025 | 0.2623 ± 0.0023 | 0.0627 ± 0.013 | 0.024 ± 0.002 | 0.829 ± 0.056 | 0.782 ± 0.081 | 0.816 ± 0.011 |  | 0.308 ± 0.018 | 0.303 ± 0.036 | 0.925 ± 0.022 | 0.88 ± 0.014
CHLA90 AUTONOMIC GANGLIA | 1 ± 0.048 | 0.982 ± 0.085 | 0.853 ± 0.049 | 0.834 ± 0.016 | 0.818 ± 0.023 | 0.769 ± 0.048 | 0.781 ± 0.04 | 0.596 ± 0.022 | 0.996 ± 0.039 |  | 0.855 ± 0.042 |  | 0.479 ± 0.029 | 0.328 ± 0.023 | 0.812 ± 0.037 | 0.785 ± 0.019
CME SYNOVIAL | 1.2 ± 0.09 | 1.4 ± 0.17 | 1.29 ± 0.12 | 1.39 ± 0.15 | 1.42 ± 0.18 | 1.37 ± 0.11 | 1.26 ± 0.098 | 1.27 ± 0.12 | 0.902 ± 0.043 |  | 0.98 ± 0.25 | 0.902 ± 0.12 | 0.634 ± 0.054 | 0.272 ± 0.007 | 1.04 ± 0.04 | 1.06 ± 0.14
COLO320DM LARGE INTESTINE | 1.04 ± 0.011 | 1.15 ± 0.067 | 1.07 ± 0.015 | 1.07 ± 0.068 | 1.12 ± 0.076 | 1.07 ± 0.055 | 0.685 ± 0.03 | 0.377 ± 0.025 |  | 1.13 ± 0.071 | 1.02 ± 0.041 | 0.977 ± 0.042 | 0.512 ± 0.0092 | 0.341 ± 0.011 | 1.05 ± 0.042 | 1.02 ± 0.027
DU4475 BREAST | 0.798 ± 0.057 | 0.876 ± 0.044 | 0.901 ± 0.12 | 0.987 ± 0.21 | 0.908 ± 0.14 | 1.09 ± 0.14 | 1.14 ± 0.19 | 0.985 ± 0.054 | 0.798 ± 0.13 | 0.753 ± 0.041 | 0.83 ± 0.15 | 0.706 ± 0.14 | 0.423 ± 0.18 | 0.0877 ± 0.041 | 0.748 ± 0.089 | 0.722 ± 0.23
